The structures appear in SMILES notation. Several values for one entry are separate records, joined by “and”; a condition that tells them apart may be missing. Identical values can stand only once. Like-named read-outs stand apart in the source and are kept apart here. A value given as a limit tells only on which side of the number the result lay.

The conditions of series [1]: snar bond, DMSO.
The target in series [2] is CFTR-mediated chloride transport (Homo sapiens, UniProt P13569). It is filed as cell-based. Particulars: enteroid cells incubated with test compound 18-24 hours, acute 10 μM forskolin and 300 nM Compound III; for Max. Activity: % of chloride transport with 3 μM Compound A, 3 μM Compound II and 300 nM acute Compound III triple combination control. Put shortly:
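Membrane-potential fluorescence AUC over 15 min quantified CFTR chloride transport after acute forskolin (10 μM), IBMX (100 μM) and Compound III (300 nM) in chloride-free buffer. Human enteroid cells were pretreated with compound for 18–24 h; % Activity is relative to 3 μM Compound A + 3 μM Compound II + 300 nM Compound III.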

The mark [3] stands for this setting: from Cc1c(S(=O)(=O)NC(=O)c2ccc(-n3ccc(OCC(C)(C)C(F)(F)F)n3)nc2Cl)cnn1CCCC1CNC(C)(C)C1, 14-membered ring, K2CO3/CsF/3A MS, 25.9 mM, 150.0 °C.

CFTR-mediated chloride transport, sequence (P13569 whole entry, looked up): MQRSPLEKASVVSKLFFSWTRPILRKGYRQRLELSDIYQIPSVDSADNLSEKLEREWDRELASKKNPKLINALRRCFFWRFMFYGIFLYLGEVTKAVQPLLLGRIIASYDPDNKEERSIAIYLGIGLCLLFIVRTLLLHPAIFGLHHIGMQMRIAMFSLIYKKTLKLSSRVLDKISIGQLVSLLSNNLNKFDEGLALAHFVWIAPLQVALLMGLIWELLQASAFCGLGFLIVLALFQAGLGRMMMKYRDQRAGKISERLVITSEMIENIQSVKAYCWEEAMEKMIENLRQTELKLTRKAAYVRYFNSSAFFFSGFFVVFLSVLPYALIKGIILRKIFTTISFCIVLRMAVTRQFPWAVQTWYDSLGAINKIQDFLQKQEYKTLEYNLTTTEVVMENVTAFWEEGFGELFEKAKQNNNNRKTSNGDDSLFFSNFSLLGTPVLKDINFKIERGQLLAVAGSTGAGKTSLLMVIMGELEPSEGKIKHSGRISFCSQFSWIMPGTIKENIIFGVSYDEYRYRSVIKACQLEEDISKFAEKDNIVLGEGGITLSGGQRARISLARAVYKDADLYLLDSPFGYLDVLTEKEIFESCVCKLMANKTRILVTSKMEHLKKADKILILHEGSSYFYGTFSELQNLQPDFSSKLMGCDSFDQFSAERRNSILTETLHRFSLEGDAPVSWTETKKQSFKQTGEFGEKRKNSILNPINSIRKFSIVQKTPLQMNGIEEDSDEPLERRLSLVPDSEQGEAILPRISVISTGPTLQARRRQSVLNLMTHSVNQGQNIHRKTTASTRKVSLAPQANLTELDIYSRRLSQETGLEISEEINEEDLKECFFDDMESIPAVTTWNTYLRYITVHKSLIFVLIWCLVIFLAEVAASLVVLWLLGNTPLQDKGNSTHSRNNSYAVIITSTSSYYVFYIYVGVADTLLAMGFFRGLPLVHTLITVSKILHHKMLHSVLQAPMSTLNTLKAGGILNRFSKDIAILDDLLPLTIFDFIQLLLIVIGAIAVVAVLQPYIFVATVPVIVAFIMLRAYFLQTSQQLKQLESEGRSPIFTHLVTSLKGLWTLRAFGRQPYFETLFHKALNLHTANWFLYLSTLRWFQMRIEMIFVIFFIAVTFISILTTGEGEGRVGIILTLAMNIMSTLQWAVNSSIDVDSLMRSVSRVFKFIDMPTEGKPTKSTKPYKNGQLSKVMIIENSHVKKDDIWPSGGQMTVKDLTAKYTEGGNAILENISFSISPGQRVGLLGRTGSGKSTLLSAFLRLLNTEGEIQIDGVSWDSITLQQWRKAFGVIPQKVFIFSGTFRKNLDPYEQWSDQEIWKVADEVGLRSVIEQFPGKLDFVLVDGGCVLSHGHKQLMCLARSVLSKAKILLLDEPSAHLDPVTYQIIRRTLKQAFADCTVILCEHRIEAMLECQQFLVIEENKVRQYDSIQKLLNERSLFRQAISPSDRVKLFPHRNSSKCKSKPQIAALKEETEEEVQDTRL

In the case of `CC1(C)CC2CCNc3cccc(n3)S(=O)(=O)NC(=O)c3ccc(-n4ccc(OCCCC5(C(F)(F)F)CC5)n4)nc3N1C2` (centres unmarked), the ring closure, yield after HPLC in series [1] (from CC1(C)CC(CCNc2cccc(S(=O)(=O)NC(=O)c3ccc(-n4ccc(OCCCC5(C(F)(F)F)CC5)n4)nc3Cl)n2)CN1, 14-membered ring, K2CO3/CsF/3A MS, 128.0 mM, 150.0 °C) was 43%.

In series [1] (from CC1(C)CC(CCNc2cccc(S(=O)(=O)NC(=O)c3ccc(-n4ccc(OCCC(C5CC5)C5CC5)n4)nc3Cl)n2)CN1, 14-membered ring, K2CO3/CsF/3A MS, 22.7 mM, 150.0 °C), `CC1(C)CC2CCNc3cccc(n3)S(=O)(=O)NC(=O)c3ccc(-n4ccc(OCCC(C5CC5)C5CC5)n4)nc3N1C2` (single isomer, unassigned; enantiomer 2) gave a ring closure, yield after HPLC of 29%.

On to `CC1(C)CC2CCCn3nccc3S(=O)(=O)NC(=O)c3ccc(Cl)nc3N1C2` (centres unmarked), for which the ring closure, yield after HPLC in series [1] (from tert-butyl 4-[3-[3-1(2,6-dichloropyridine-3-carbonyl)sulfamoyl]pyrazol-1-yl]propyl]-2,2-dimethyl-pyrrolidine-1-carboxylate, TFA (Boc off), CsF/K2CO3/3A MS, 89.2 mM, 140.0 °C, 2 steps) came to 4%.

The molecule `Cc1c2cnn1CCCCC1CN(c3nc(-n4ccc(OCCC5(C(F)(F)F)CC5)n4)ccc3C(=O)NS2(=O)=O)C(C)(C)C1` (centres unmarked) returned a ring closure, yield after HPLC in series [1] (from Cc1c(S(=O)(=O)NC(=O)c2ccc(-n3ccc(OCCC4(C(F)(F)F)CC4)n3)nc2Cl)cnn1CCCCC1CNC(C)(C)C1, 15-membered ring, K2CO3/CsF, 130.1 mM, 150.0 °C) of 13%.

Molecule `Cc1c2cnn1CCCC1CN(c3nc(-n4ccc(OCC(C)(C)C(F)(F)F)n4)ccc3C(=O)NS2(=O)=O)C(C)(C)C1` (single isomer, unassigned; atropisomer 1) had a ring closure, yield after HPLC in series [1] (setting [3]) of 10%.

`CC1(C)CC2CCCn3ccc(n3)S(=O)(=O)NC(=O)c3ccc(Cl)nc3N1C2` (centres unmarked) yielded a ring closure, yield after HPLC in series [1] (from CC(C)(C)OC(=O)N1CC(CCCn2nccc2S(=O)(=O)NC(=O)c2ccc(Cl)nc2Cl)CC1(C)C, 14-membered ring, K2CO3/CsF/3A MS, 89.2 mM, 140.0 °C, 2 steps) of 12%.

In turn, `Cc1cn2nc1S(=O)(=O)NC(=O)c1ccc(-n3ccc(OCCC(C4CC4)C4CC4)n3)nc1N1CC(CCC2)CC1(C)C` (centres unmarked) gave a ring closure, yield after HPLC in series [1] (from Cc1cn(CCCC2CNC(C)(C)C2)nc1S(=O)(=O)NC(=O)c1ccc(-n2ccc(OCCC(C3CC3)C3CC3)n2)nc1Cl, 14-membered ring, K2CO3/CsF/3A MS, 58.8 mM, 150.0 °C) of 38%.

With `Cc1c2cnn1CCCC1CN(c3nc(-n4ccc(OCC(C)(C)C(F)(F)F)n4)ccc3C(=O)NS2(=O)=O)C(C)(C)C1` (single isomer, unassigned; atropisomer 2), in series [1] (setting [3]), the ring closure, yield after HPLC turned out to be 4%.

Molecule `CC1(C)CCC2CCCNc3cccc(n3)S(=O)(=O)NC(=O)c3ccc(Cl)nc3N21` (centres unmarked) yielded a ring closure, yield after HPLC in series [1] (from CC1(C)CCC(CCCNc2cccc(S(=O)(=O)NC(=O)c3ccc(Cl)nc3Cl)n2)N1, 14-membered ring, K2CO3/CsF/4A MS, 63.7 mM, 150.0 °C) of 24%.

As to `CC1(C)CC2CCNc3cccc(n3)S(=O)(=O)NC(=O)c3ccc(-n4ccc(OCCC(C5CC5)C5CC5)n4)nc3N1C2` (single isomer, unassigned; enantiomer 1), in series [1] (from CC1(C)CC(CCNc2cccc(S(=O)(=O)NC(=O)c3ccc(-n4ccc(OCCC(C5CC5)C5CC5)n4)nc3Cl)n2)CN1, 14-membered ring, K2CO3/CsF/3A MS, 24.9 mM, 150.0 °C), the ring closure, yield after HPLC stood at 41%.

Consider `Cc1ccc2nc1NCCCC1CN(c3nc(-n4ccc(OCCC5(C(F)(F)F)CC5)n4)ccc3C(=O)NS2(=O)=O)C(C)(C)C1` (centres unmarked), for which the ring closure, yield after HPLC in series [1] (from Cc1ccc(S(=O)(=O)NC(=O)c2ccc(-n3ccc(OCCC4(C(F)(F)F)CC4)n3)nc2Cl)nc1NCCCC1CNC(C)(C)C1, 15-membered ring, K2CO3/CsF/4A MS, 61.3 mM, 140.0 °C, 16.0 h) is 42%.

For `Cc1c2cnn1CCC[C@@H]1CN(c3nc(-n4ccc(OCCC5(C(F)(F)F)CC5)n4)ccc3C(=O)NS2(=O)=O)C(C)(C)C1`, in series [1] (from Cc1c(S(=O)(=O)NC(=O)c2ccc(-n3ccc(OCCC4(C(F)(F)F)CC4)n3)nc2Cl)cnn1CCC[C@@H]1CNC(C)(C)C1, 14-membered ring, K2CO3/CsF, 37.8 mM, 160.0 °C), the ring closure, yield after HPLC was 6% and 16%.

As for `CC1(C)CCC2CCCOc3cccc(c3)S(=O)(=O)NC(=O)c3ccc(-n4ccc(OCCC5(C(F)(F)F)CC5)n4)nc3N21` (centres unmarked), the ring closure, yield after HPLC in series [1] (from CC(C)(C)OC(=O)N1C(CCCOc2cccc(S(=O)(=O)NC(=O)c3ccc(-n4ccc(OCCC5(C(F)(F)F)CC5)n4)nc3Cl)c2)CCC1(C)C, 14-membered ring, K2CO3, then CsF, 64.2 mM, 170.0 °C, 2 steps) is 4%.

As a reminder, the EC50 is the concentration that produces a half-maximal response. Take `CC1(C)C[C@@H]2CCCNc3cccc(n3)S(=O)(=O)NC(=O)c3ccc(N4CC5CCCCN5C4=O)nc3N1C2` (stereo partly drawn) [Compound 213, (14S)-12,12-dimethyl-8-{3-oxo-octahydroimidazo[1,5-a]pyridin-2-yl}-2λ^6-thia-3,9,11,18,23-pentaazatetracyclo[17.3.1.111,14.05,10]tetracosa-1(23),5(10),6,8,19,21-hexaene-2,2,4-trione]: in series [2], the EC50 is more than 3000 nM and the “Max. Activity” value is on record as “+ (+ is <30%)”.

With `CC1(C)C[C@H]2CCn3ccc(n3)S(=O)(=O)NC(=O)c3ccc(-n4ccc(OCCCC5(C(F)(F)F)CC5)n4)nc3N1C2` (single isomer, unassigned) [Compound 279, 19,19-dimethyl-4-(3-{3-[1-(trifluoromethyl)cyclopropyl]propoxy}-1H-pyrazol-1-yl)-10λ^6-thia-1,3,9,14,21-pentaazatetracyclo[15.2.1.111,14.02,7]henicosa-2,4,6,11(21),12-pentaene-8,10,10-trione], in series [2], the EC50 is less than 1000 nM and the “Max. Activity” value was “++ (++ is 30-60%)”.

In the case of `Cc1nn2cc1S(=O)(=O)NC(=O)c1ccc(-n3ccc(OCC(C)(C)C(F)(F)F)n3)nc1N1C[C@H](CCC2)CC1(C)C` (single isomer, unassigned) [Compound 290, 12,20,20-trimethyl-4-[3-(3,3,3-trifluoro-2,2-dimethylpropoxy)-1H-pyrazol-1-yl]-10λ^6-thia-1,3,9,13,14-pentaazatetracyclo[16.2.1.111,14.02,7]docosa-2,4,6,11(22),12-pentaene-8,10,10-trione], in series [2], the 50% effective concentration (EC50) was more than 3000 nM and the “Max. Activity” value is given as “+ (+ is <30%)”.

In the case of `CC1(C)C[C@H]2CCCCn3ccc(n3)S(=O)(=O)NC(=O)c3ccc(-n4ccc(OCCCC5(C(F)(F)F)CC5)n4)nc3N1C2` (single isomer, unassigned) [Compound 277, 21,21-dimethyl-4-(3-{3-[1-(trifluoromethyl)cyclopropyl]propoxy}-1H-pyrazol-1-yl)-10λ^6-thia-1,3,9,14,23-pentaazatetracyclo[17.2.1.111,14.02,7]tricosa-2,4,6,11(23),12-pentaene-8,10,10-trione], in series [2], the 50% effective concentration (EC50) is more than 3000 nM and the “Max. Activity” value is recorded as “+ (+ is <30%)”.

Take `CC1(C)CC2CCCNc3cccc(n3)S(=O)(=O)NC(=O)c3ccc(Cl)nc3N1C2` (centres unmarked): the ring closure, yield after HPLC in series [1] (from CC1(C)CC(CCCNc2cccc(S(=O)(=O)NC(=O)c3ccc(Cl)nc3Cl)n2)CN1, 15-membered ring, K2CO3/CsF/3A MS, 82.2 mM, 140.0 °C) is 38%.

Take `C[C@@H]1CC[C@H]2CN(c3nc(N4CCN(CCC(C)(C)C)C4=O)ccc3C(=O)NS(=O)(=O)c3cccc(n3)N1)C(C)(C)C2` (single isomer, unassigned) [Compound 219, 8-[3-(3,3-dimethylbutyl)-2-oxoimidazolidin-1-yl]-12,12,17-trimethyl-2λ^6-thia-3,9,11,18,23-pentaazatetracyclo[17.3.1.111,14.05,10]tetracosa-1(22),5,7,9,19(23),20-hexaene-2,2,4-trione]: in series [2], the EC50 was less than 1000 nM and the “Max. Activity” value is reported as “++ (++ is 30-60%)”.

With `CC1(C)C[C@@H]2CN1c1nc(-n3ccc(OCCC4(C(F)(F)F)CC4)n3)ccc1C(=O)NS(=O)(=O)c1ccn(n1)CCO2` (single isomer, unassigned) [Compound 167, 20,20-dimethyl-4-(3-{2-[1-(trifluoromethyl)cyclopropyl]ethoxy}-1H-pyrazol-1-yl)-17-oxa-10λ^6-thia-1,3,9,14,22-pentaazatetracyclo[16.2.1.111,14.02,7]docosa-2(7),3,5,11(22),12-pentaene-8,10,10-trione], in series [2], the EC50 was less than 1000 nM and the “Max. Activity” value was “++ (++ is 30-60%)”.

For `CC1(C)C[C@@H]2CCCNc3cccc(n3)S(=O)(=O)NC(=O)c3ccc(N4CCN(CC5CCC(F)(F)CC5)C4=O)nc3N1C2` [Compound 214, (14S)-8-{3-[(4,4-Difluorocyclohexyl)methyl]-2-oxoimidazolidin-1-yl}-12,12-dimethyl-2λ^6-thia-3,9,11,18,23-pentaazatetracyclo[17.3.1.111,14.05,10]tetracosa-1(22),5,7,9,19(23),20-hexaene-2,2,4-trione], in series [2], the EC50 was less than 1000 nM and the “Max. Activity” value was “++ (++ is 30-60%)”.

Regarding `CC1(C)C[C@H]2CCCCn3cc(cn3)S(=O)(=O)NC(=O)c3ccc(-n4ccc(OCCC5(C(F)(F)F)CC5)n4)nc3N1C2` (single isomer, unassigned) [Compound 135, 21,21-dimethyl-4-(3-{2-[1-(trifluoromethyl)cyclopropyl]ethoxy}-1H-pyrazol-1-yl)-10λ^6-thia-1,3,9,13,14-pentaazatetracyclo[17.2.1.111,14.02,7]tricosa-2,4,6,11(23),12-pentaene-8,10,10-trione], in series [2], the EC50 was less than 1000 nM and the “Max. Activity” value was “+++ (+++ is >60%)”.

In the case of `CC1(C)C[C@@H]2CCCNc3cccc(n3)S(=O)(=O)NC(=O)c3ccc(-n4ccc(OC[C@@H](O)CC5(C(F)(F)F)CC5)n4)nc3N1C2` (single isomer, unassigned) [Compound 283], in series [2], the concentration giving a half-maximal response (EC50) is less than 1000 nM and the “Max. Activity” value is “+++ (+++ is >60%)”.

Source of the values: US11866450B2, “Modulators of Cystic Fibrosis Transmembrane Conductance regulator, pharmaceutical compositions, methods of treatment, and process for making the modulators” (priority 2018, dated 2024).
